Experimental data from patent EP2608671B1, “COMPOUNDS FOR TREATMENT OF CANCER” (Gtx, Inc., priority 2010, dated 2012).
Counter-ions that a name gives are not always drawn. Like-named read-outs stand apart in the source and are kept apart here.

Tests used:
[1] = test system: melanoma cell lines (A375, WM-164, B16-F1) and prostate cancer cell lines (LNCaP, DU 145, PC-3, PPC-1); test: SRB cytotoxicity, melanoma and prostate cell panel (averages); type: cell-based
Excerpt: (§1) The only compounds which belong to the invention are the ones falling under the scope of formula (XI).

B16-F1 = test: SRB cell growth inhibition (cytotoxicity) assay; type: cell-based, mouse; settings: Mus musculus
Excerpt: as §1

A375 = test: SRB cell growth inhibition (cytotoxicity) assay; type: cell-based, human; settings: Homo sapiens
WM-164 = test: SRB cell growth inhibition (cytotoxicity) assay; type: cell-based, human; settings: Homo sapiens
PC-3 = test: cells; settings: Homo sapiens, PC-3, 96 h
Excerpt: as §1
Cells were stained with SRB solution.
Cells. […] Cells between the third and fifth passages were used for experiments.
Cell growth inhibition studies. […] Cells were stained with sulphorhodamine B (SRB) solution.

DU 145 = test: cells; settings: Homo sapiens, DU-145, 96 h
LNCaP = test: cells; settings: Homo sapiens, 96 h
PPC-1 = test: cells; settings: Homo sapiens, PPC-1, 96 h
[2] = B16-F1, SRB, 48 h, Table 11, read-out: IC50 (nM), B16-F1
[3] = A-375, SRB, 48 h, Table 11, read-out: IC50 (nM), A375
[4] = WM164, SRB, 48 h, Tables 11, 12, read-out: IC50 (nM), WM164
[5] = B16-F1 melanoma cells, 48 h, SRB, read-out: IC50 ± SEM (nM) B16-F1
[6] = A-375, A375 melanoma cells, 48 h, SRB, read-out: IC50 ± SEM (nM) A375
[7] = WM164 melanoma cells, 48 h, SRB, read-out: IC50 ± SEM (nM) WM164
[8] = read-out: IC50 ± SEM (nM), PC-3
[9] = read-out: IC50 ± SEM (nM) Du 145
[10] = read-out: IC50 ± SEM (nM), LNCaP
[11] = read-out: IC50 ± SEM (nM), PPC-1

SMILES | IC50 (B16-F1; [2]) | IC50 (A375; [3]) | IC50 (WM-164; [4]) | IC50 (PC-3; read-out: IC50 (nM), PC-3) | IC50 (DU 145; read-out: IC50 (nM), Du 145) | IC50 (LNCaP; read-out: IC50 (nM), LNCaP) | IC50 (PPC-1; read-out: IC50 (nM), PPC-1) | also measured
COc1cc(C(=NN)c2csc(-c3ccccc3)n2)cc(OC)c1OC (mixture of isomers) [2d] |  |  |  |  |  |  |  | IC50 ([1]; Table 2, read-out: IC50 range over tested melanoma and prostate cell lines): ~1000 nM
COc1ccc(C(=O)c2c[nH]c(-c3ccccc3)n2)cc1 [12ab, (4-methoxyphenyl)(2-phenyl-1H-imidazol-4-yl)methanone] | > 10000 nM | > 10000 nM | > 10000 nM | > 10000 nM | > 10000 nM | > 10000 nM | > 10000 nM | 
COc1cccc(C(=O)c2c[nH]c(-c3ccccc3)n2)c1 [12ac, (3-methoxyphenyl)(2-phenyl-1H-imidazol-4-yl)methanone] | > 10000 nM | > 10000 nM | > 10000 nM | > 10000 nM | > 10000 nM | > 10000 nM | > 10000 nM | 
COc1cc(OC)cc(C(=O)c2c[nH]c(-c3ccccc3)n2)c1 [12ad, (3,5-dimethoxyphenyl)(2-phenyl-1 H-imidazol-4-yl)methanone] | 5400 nM | 2800 nM | 2100 nM | 3270 nM | 2590 nM | 3610 nM | 2130 nM | 
O=C(c1ccc(F)cc1)c1c[nH]c(-c2ccccc2)n1 [12af, (4-fluorophenyl)(2-phenyl-1H-imidazol-4-yl)methanone] | 930 nM | 580 nM | 630 nM | 2200 nM | 846 nM | 613 nM | 575 nM | 
Cc1ccc(C(=O)c2c[nH]c(-c3ccccc3)n2)cc1 [12ah, (2-phenyl-1H-imidazol-4-yl)(p-tolyl)methanone] | > 10000 nM | > 10000 nM | > 10000 nM | > 10000 nM | > 10000 nM | > 10000 nM | > 10000 nM | 
Cc1cccc(C(=O)c2c[nH]c(-c3ccccc3)n2)c1 [12ai, (2-phenyl-1H-imidazol-4-yl)(m-tolyl)methanone] | > 10000 nM | > 10000 nM | > 10000 nM | > 10000 nM | > 10000 nM | > 10000 nM | > 10000 nM | 
COc1ccc(-c2nc(C(=O)c3ccc(F)cc3)cn2C)cc1 [12cba, (4-fluorophenyl)(2-(4-methoxyphenyl)-1-methyl-1H-imidazol-4-yl)methanone] |  |  |  |  |  |  |  | IC50 (B16-F1; [5]): > 10000 nM; IC50 (A375; [6]): > 10000 nM; IC50 (WM-164; [7]): > 10000 nM; IC50 (PC-3; [8]): > 10000 nM; IC50 (DU 145; [9]): > 10000 nM; IC50 (LNCaP; [10]): > 10000 nM; IC50 (PPC-1; [11]): > 10000 nM
COc1cc(C(=O)c2cn(C)c(-c3ccc(C)cc3)n2)cc(OC)c1OC [12dab, (1-methyl-2-(p-tolyl)-1H-imidazol-4-yl)(3,4,5-trimethoxyphenyl)methanone] |  |  |  |  |  |  |  | IC50 (B16-F1; B16-F1, 48 h, read-out: IC50 ± SEM (nM) B16-F1): 134 nM; IC50 (A375; A-375, 48 h, read-out: IC50 ± SEM (nM) A375): 32 nM; IC50 (WM-164; WM164, 48 h, read-out: IC50 ± SEM (nM) WM164): 40 nM; IC50 (PC-3; [8]): 46 nM; IC50 (DU 145; [9]): 36 nM; IC50 (LNCaP; [10]): 32 nM; IC50 (PPC-1; [11]): 28 nM
Cc1ccc(-c2nc(C(=O)c3ccc(F)cc3)c[nH]2)cc1 [12db-HCl, (4-fluorophenyl)(2-(p-tolyl)-1H-imidazol-4-yl)methanone HCl salt] |  |  |  |  |  |  |  | IC50 (A375; A-375, 48 h, read-out: IC50 ± SEM (nM) A375, A375 melanoma cells, 48 h, SRB): 108 ± 11 nM; IC50 ([1]; ABI compounds, Tables 11-13, HCl salt, read-out: IC50 (average over cell lines)): 172 nM
COc1cc(C(=O)c2c[nH]c(-c3ccc(C)cc3)n2)cc(OC)c1O [12dc, (4-hydroxy-3,5-dimethoxyphenyl)(2-(p-tolyl)-1H-imidazol-4-yl)methanone] |  |  |  |  |  |  |  | IC50 (B16-F1; [5]): 387 nM; IC50 (A375; [6]): 105 nM; IC50 (WM-164; [7]): 123 nM; IC50 (PC-3; [8]): 127 nM; IC50 (DU 145; [9]): 174 nM; IC50 (LNCaP; [10]): 134 nM; IC50 (PPC-1; [11]): 110 nM
